Experimental data as given in BindingDB's records for doi:10.7270/Q20K275C (The Scripps Research Institute Molecular Screening Center, 2012).

Target: Arf-GAP with SH3 domain, ANK repeat and PH domain-containing protein 1 (Homo sapiens, UniProt Q9ULH1)
Sequence (Q9ULH1 whole entry, the tested form may be a part): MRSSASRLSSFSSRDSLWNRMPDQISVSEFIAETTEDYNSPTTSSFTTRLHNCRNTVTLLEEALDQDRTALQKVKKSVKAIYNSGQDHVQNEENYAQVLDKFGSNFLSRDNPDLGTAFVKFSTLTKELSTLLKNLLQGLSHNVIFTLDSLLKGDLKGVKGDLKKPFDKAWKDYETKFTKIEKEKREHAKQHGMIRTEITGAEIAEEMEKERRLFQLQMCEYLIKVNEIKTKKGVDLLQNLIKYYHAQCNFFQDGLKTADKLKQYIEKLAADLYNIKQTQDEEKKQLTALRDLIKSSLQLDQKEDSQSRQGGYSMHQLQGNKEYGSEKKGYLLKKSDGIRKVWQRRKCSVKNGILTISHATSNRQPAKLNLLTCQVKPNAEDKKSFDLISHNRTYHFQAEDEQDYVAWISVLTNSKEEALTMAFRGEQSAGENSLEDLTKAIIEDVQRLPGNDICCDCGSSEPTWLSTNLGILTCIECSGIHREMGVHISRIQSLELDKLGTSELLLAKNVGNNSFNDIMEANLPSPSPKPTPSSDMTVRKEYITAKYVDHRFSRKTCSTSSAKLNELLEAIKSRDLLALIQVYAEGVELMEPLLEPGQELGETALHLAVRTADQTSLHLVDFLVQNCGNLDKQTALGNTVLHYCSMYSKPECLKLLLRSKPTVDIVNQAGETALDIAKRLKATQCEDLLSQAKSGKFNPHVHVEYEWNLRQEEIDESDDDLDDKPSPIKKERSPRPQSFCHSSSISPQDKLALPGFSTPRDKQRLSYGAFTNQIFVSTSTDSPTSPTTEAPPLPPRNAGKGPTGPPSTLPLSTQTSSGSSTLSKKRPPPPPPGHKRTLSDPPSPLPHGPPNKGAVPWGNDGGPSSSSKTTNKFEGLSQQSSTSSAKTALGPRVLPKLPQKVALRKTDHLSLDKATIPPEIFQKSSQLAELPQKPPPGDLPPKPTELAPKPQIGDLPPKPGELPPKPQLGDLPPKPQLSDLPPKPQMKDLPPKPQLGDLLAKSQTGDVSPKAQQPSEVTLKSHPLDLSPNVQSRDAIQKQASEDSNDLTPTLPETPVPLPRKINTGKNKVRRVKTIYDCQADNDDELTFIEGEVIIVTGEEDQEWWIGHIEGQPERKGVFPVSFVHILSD

IC50: > 165 µM
SMILES: O=C(Nc1cccc(-c2csc(Nc3ccc(Cl)cc3)n2)c1)c1ccccc1
